Experimental data taken from patent US12336986B2, “Treatment and prevention of ocular neurodegenerative disorder” (The Jackson Laboratory, priority 2015, dated 2025).
Entries after “also recorded” stand apart in the source; their conditions may differ.

Key:
[1] = tested on: SNAP-25; assay: Synapse loss (SNAP-25 staining) in D2 retinas; assay type: in vivo, mouse; details: D2 mice, NAM 550 mg/kg/day
Experimental: (§1) For immunofluorescence staining, mice were euthanized by cervical dislocation, their eyes enucleated and placed in 4% PFA ON. Retinas were dissected and flat-mounted onto slides, permeabilized with 0.1% Triton-X for 15 mins, blocked with 2% BSA in PBS and stained ON at RT in primary antibody (see below for list of antibodies).
(§2) After primary antibody incubation, retinas were washed 5 times in PBS, stained for 4 hrs at RT with secondary antibody. Slides were then washed a further 5 times with PBS, stained with DAPI for 15 mins, mounted with fluoromount, coverslipped and sealed with nail-polish.
(§3) For retinal sections, eyes were cryoprotected in 30% sucrose ON, frozen in OCT and cryosectioned at 18 μm. Slides were warmed to room temperature and the procedure above was followed. Retinas were imaged on a Zeiss AxioObserver for low resolution counts. Retinal sections were imaged on a Leica SP8 far higher resolution images.

[2] = tested on: retinal ganglion cells (RGCs); assay: RNA-sequencing of FAC sorted RGCs, differential gene expression; assay type: in vivo, mouse; details: for RGC gene expression changes (RNA-seq): D2 mice, NAM 550 mg/kg/day in drinking water from 6-month, 9-month RGCs
Experimental: Prior to cell collection, all surfaces and volumes were cleaned with 70% ethanol and RNaseZap (ThermoFisher Scientific) solution followed by dH2O. Mice were euthanized, eyes enucleated and placed immediately into ice-cold HBSS. Retinas were dissected from the eyes (4- or 9-month of age, no axon degeneration confirmed by PPD staining, data not shown) in HBSS on ice and placed directly into 100 μL, of a custom HBSS (Gibco), dispase (5 U/mL) (Stemcell Technologies), DNase 1 (2000 U/mL) (Worthington Biochemical) and SUPERase (1 U/μL) (ThermoFisher Scientific) solution. All retinas were from eyes that had no glaucomatous axon degeneration by PPD staining and analysis (see optic nerve assessment below). Retinas were incubated for 20 mins at 37° C. and shaken at 350 RPM in an Eppendorf Thermomixer R followed by gentle trituration using a 200 μL pipette. Samples were blocked in 2% BSA, SUPERase (1 U/μL) in HBSS, and stained with conjugated antibodies against Cd11b, Cd11c, Cd34, Cd45.2, GFAP, Thy1.2 as well as DAPI. This cocktail allowed other retina cell types to be accurately removed during FACS.
FACS was performed on a FACSAria (BD Biosciences). Thy1.2^+ (and negative for all other markers) RGCs were sorted into 300 μL buffer RLT+1% β-ME, vortexed and frozen at −80° C. until further processing.
[…] RGC samples were defrosted on ice and homogenized by syringe in RLT Buffer (total volume 300 μL). Total RNA was isolated using RNeasy micro kits according to manufacturer's protocols (Qiagen) including the optional DNase treatment step, and quality was assessed using an Agilent 2100 Bioanalyzer. The concentration was determined using Ribogreen Assay (Invitrogen). […]
Library size produced was analyzed using qPCR using the Library Quantitation kit/Illumina GA/ABI Prism (Kapa Biosystems). Libraries were barcoded, pooled, and sequenced 6 samples per lane on a HiSeq 2500 sequencer (illumina) giving a depth of 30-35 million reads per sample.
Samples were subjected to quality control analysis by a custom quality control python script. Reads with 70% of their bases having a base quality score ≥30 were retained for further analysis. Read alignment was performed using TopHat v 2.0.7 (Kim et al., Genome Biol 14, R36, 2013) and expression estimation was performed using HTSeq (Anders et al., Bioinformatics 31, 166-169, 2015) with supplied annotations and default parameters against the DBA/2J mouse genome (build-mm10). […]
Differential gene expression analysis between groups was performed using edgeR v 3.10.5 (Robinson et al., Bioinformatics 26, 139-140, 2010) following, batch correction using RUVSeq, the removal of outlier samples and lowly expressed genes by removing genes with less than five reads in more than two samples. […]

[3] = tested on: HIF-1α; assay: HIF-1α induction (immunostaining, RNA-seq) in D2 retinas; assay type: in vivo, mouse; details: D2 mice, early glaucoma, NAM 550 mg/kg/day
Experimental: as §1, §2, §3

[4] = tested on: mouse model for EAE, ALS, RRMS; details: US 2006-0211744 A1, RRMS mouse models; cited from earlier work
[5] = tested on: ganglion cell layer cells (GCL cells); assay: Whole retina explant culture (axotomy culture model), DAPI nuclei; assay type: cell-based, mouse
From the text: Mice were euthanized, eyes enucleated and placed immediately into ice-cold HBSS. Retinas were dissected from the eyes in HBSS on ice, flat-mounted with the ganglion cell layer up on a cell culture insert (Millipore), and submerged in tissue culture media containing Neurobasal-A, 1% penicillin-streptomycin (10000 U/mL), 1% glutamine (100×), 1% N-2 (100×) and 1% B-27 (50×) (all ThermoFisher Scientific).
For drug treated retinas tissue culture media was made as above and supplemented with one of the following compounds (all Sigma unless otherwise): β-NAD, NAM (PanReac AppliChem), β-NMN. Retinas were incubated in 6-well plates at 37° C. and 4% CO2 for 5 days before being fixed in 4% PFA and stained with DAPI. (For untreated “Day 0” controls, retinas were dissected and placed straight into 4% PFA.) Retinas were imaged on a Zeiss AxioObserver.

[6] = cited from earlier work
[7] = tested on: retinal ganglion cells (RGCs); assay: RGC soma loss (RBPMS staining) in D2 glaucoma; assay type: in vivo, mouse; details: D2 mice; NAM 550 mg/kg/day or pyruvate 500 mg/kg/day
Experimental: as §1, §2, §3

[8] = RGCs, q<0.05, NAM 550 mg/kg/day
[9] = axotomized retinas in culture, 5 days

With NC(=O)c1cccnc1 [NAM, nicotinamide] the “synapse loss in early glaucoma (SNAP-25 staining)” value [1] was “protected against early synapse loss; also recorded: prevents synapse loss”, the “RGC gene expression changes (RNA-seq)” value [2] was “prevented even the earliest molecular signs of glaucoma in the majority of treated eyes; also recorded: prevented the vast majority of age-related gene expression changes; also recorded: returned to normal; also recorded: molecularly similar to controls; also recorded: molecularly similar to both young and age-matched no glaucoma control RCGs; also recorded: prevents transcriptome imbalances and OXPHOS imbalances; also recorded: prevents age- and disease-related gene expression changes” and the “RGC gene expression changes (RNA-seq)” value ([2]; listed as nicotinamide) was “more closely molecularly matched to young control mice”. The “number of DE genes, 4-month D2-Gpnmb+ vs. NAM” value [2, 8] was 83, the “number of DE genes, 9-month D2-Gpnmb+ vs. NAM” value [2, 8] was 4437 and the “HIF-1α upregulation / transcriptional induction” value [3] was “limited; also recorded: lessens upregulation”. The neural degeneration [4] was “reduces neural degeneration”, the “nuclear diameter shrinkage (DAPI-labeled nuclei)” value ([5]; axotomized D2 retinas in culture, 5 days post-axotomy, NAM 100 mM and 500 mM) was “most robust protection against nuclear shrinkage; also recorded: protects against cell shrinkage; also recorded: indistinguishable from uninjured, baseline controls” and the “ganglion cell layer cell death / cell density” value [5, 9] was “attractive dose-response effect”. For the same compound, the “protective effect in retina tissue culture” value [5, 9] was “robustly protected”, the “doses with an incidence of hepatotoxicity” value ([6]; humans, attributed to impurities in older preparations) was greater than 4 grams NAM per day and the “cases of jaundice reported” value ([6]; survey of 6000 patients on high doses) was 3. The “RGC soma loss (RBPMS)” value [7] was “prevented; also recorded: protects from RGC soma loss; also recorded: prevent RGC soma loss”.
